Experimental data taken from US20250107543A1, “TREATMENT OF AGRICULTURAL, FOOD AND RELATED PRODUCTS FOR ELIMINATING CONTAMINANTS AND ENCHANCING SHELF-LIFE” (priority 2022, published 2025).

Key:
aerobic micro-organisms = test: Aerobic/Total Plate Count of whole red chilli after pre-conditioning, trioxygen and heated air; conditions: whole red chilli 12 kg's
Description: (§1) This experiment illustrates the treatment of aerobic micro-organisms, yeast, mould, coliform, E. coli, Salmonella and fat soluble metabolites contaminated whole red chilli.
(§2) The data presented in Table-2 illustrate the efficacy of the present disclosure in detoxifying contaminated whole red chillies. […].
(§3) The red chillies were exposed with Trioxygen for 2 minutes. The products were put under pressure of trioxygen gas for a span of 9 minutes to 26 minutes. Based on the commodity characteristics, the exposure of trioxygen gas was repeated 10 times. Trioxygen gas having a capacity 500 g/h was generated by the trioxygen generator (on site) of the system with a constant oxygen flow rate and delivered to the decontamination chamber through silicon tube. The whole red chillies were then treated to heated air.

E. coli = test: Detection of E. coli in treated whole red chilli; conditions: whole red chilli 12 kg's, Trial 3
Description: as §1, §2, §3

[1] = C17H12O6 content of treated whole red chilli; conditions: whole red chilli 12 kg's
Description: as §1, §2, §3

[2] = C17H12O6 content of treated groundnuts; conditions: groundnut
Description: The data presented in Table-3 illustrates the efficiency of the system of the present disclosure in detoxifying contaminated groundnuts.
Three sets of C17H12O6 contaminated 3 kg's, 60 kg's and 60 kg's of groundnuts were separately pre-conditioned and decontaminated in the system. In this case, groundnuts were pre-conditioned and exposed with trioxygen gas for up to 5 minutes. The products were put under pressure of trioxygen gas for a span of 9 minutes to 26 minutes. Based on the commodity characteristics, the exposure of trioxygen gas was repeated 15 times. Trioxygen gas having capacity 500 g/h was generated by the trioxygen generator of the system (on site) with a constant oxygen flow rate and delivered to the decontamination chamber through silicon tube. All 3 sets of products were heated and then analyzed for the presence of the contaminant and the results obtained are summarized in Table-3.

[3] = C17H12O6 content of treated corn
Description: The data presented in Table-4 illustrates the efficiency of the system of the present disclosure in detoxifying pre-conditioned contaminated corn.
Three sets of C17H12O6 contaminated 70 kg's of corn were separately decontaminated in the system of the present disclosure. In this case, corn samples were pre-conditioned with a pre-conditioning liquid and exposed to trioxygen gas for up to 5 minutes. The products were put under pressure of trioxygen gas for a span of 9 minutes to 26 minutes. Based on the commodity characteristics, the exposure of trioxygen gas was repeated 20 times. Trioxygen gas having capacity 500 g/h was generated by the trioxygen generator of the system (on site) with a constant oxygen flow rate and delivered to the decontamination chamber through silicon tube. All 3 sets of products were air dried and then analyzed for the presence of the contaminant and the results obtained are summarized in Table-4

weevils and weevil eggs = test: Shelf-Life Assessment of Groundnut; parameters: key to Visual observation: Powder at the bottom of bag / Weevils/Insects / Visual observation: Pin holes on grain: ✓ Not observed; x Observed; conditions: for Visual observation: Pin holes on grain / Visual observation: Powder at the bottom of bag / Weevils/Insects: Treated sample
Description: The data presented in Table-5 illustrates the efficiency of the system of the present disclosure in pre-conditioning and deactivation of weevils and weevil eggs results in delayed occurrence of insect infestation in grains.
Grains such as Dry corn, Groundnut, Rice & Wheat were separately pre-conditioned and decontaminated in the system of the present disclosure. Grains were exposed to trioxygen gas for up to 5 minutes. The products were put under pressure of trioxygen gas for a span of 9 minutes to 26 minutes. Trioxygen gas having capacity 500 g/h was generated by the trioxygen generator of the system (on site) with a constant oxygen flow rate and delivered to the decontamination chamber through silicon tube. All products were treated with hot air and then analyzed for the presence of the weevils and weevil eggs the results obtained are summarized in Table-5.

[4] = Pesticide residue in treated whole red chilli: Imidacloprid; conditions: whole red chilli 12 kg's, Trial 1; HOCL and Trioxygen simultaneously
Text: This experiment illustrates the treatment of whole red chilli contaminated with pesticide residues.
The data presented in Table-6 illustrates the efficacy of the present disclosure in detoxifying contaminated whole red chillies. Sets of whole red chillies of 12 kg's contaminated with pesticides like Azoxystrobin, Imidacloprid Novaluron and Myclobutanil were used for the experiment. An inert gas (Nitrogen & Carbon-di-oxide) were introduced into the chamber filled with the material to drive out existing air and oxygen in the chamber. Pre-conditioning was carried out with HOCL and trioxygen being introduced simultaneously in decontamination chamber with faster decontamination process in the system with a shorter timeline protocol.
The red chillies were exposed with HOCL and Trioxygen simultaneously for 2 minutes. The products were put under pressure of 2 bar of trioxygen gas for a span of 9 minutes to 26 minutes. Based on the commodity characteristics, the exposure of trioxygen gas was repeated 10 times. Trioxygen gas having a capacity 500 g/h was generated by the trioxygen generator (on site) of the system with a constant oxygen flow rate and delivered to the decontamination chamber through silicon tube. The whole red chillies were then treated to heated air.

Which “Aerobic Plate Count, % Reduction” value (aerobic micro-organisms; Trial 1) does the source give for `O=[O+][O-]` [Trioxygen] here?
The value was 97%.

And the “Aerobic Plate Count, Results After Treatment” value (aerobic micro-organisms; Trial 1, before treatment 9.82 × 10^8 cfu/g)?
Its value is 3.0 × 10^7 cfu/g.

And the “Total Plate Count, % Reduction” value (aerobic micro-organisms; Trial 2)?
The value was 80%.

And the “Total Plate Count, Results After Treatment” value (aerobic micro-organisms; Trial 2, before treatment 1.85 × 10^8 cfu/g)?
The value was 3.72 × 10^7 cfu/g.

What about the “Total Plate Count, % Reduction” value (aerobic micro-organisms; Trial 3) of the same molecule?
The value was 97%.

And the “Total Plate Count, Results After Treatment” value (aerobic micro-organisms; Trial 3, before treatment 2.4 × 10^7 cfu/g)?
The value was 8.36 × 10^5 cfu/g.

And the “Detection of E. coli, % Reduction” value (E. coli)?
The value was 100%.

And the “Detection of E. coli, Results After Treatment” value (E. coli; before treatment Present/25 g)?
Its value is “Absent/25 g”.

And the “C17H12O6, % Reduction” value ([1]; Trial 2)?
Its value is 73%.

And the “C17H12O6, % Reduction” value ([1]; Trial 3)?
The value was 76%.

What about the “C17H12O6, % Reduction” value ([2]; Sr. No. 1, 3 kg's) of the same molecule?
Its value is 100%.

What about the “C17H12O6, % Reduction” value ([2]; Sr. No. 2, 60 kg's) of the same molecule?
The value was 93%.

And the “C17H12O6, % Reduction” value ([2]; Sr. No. 3, 60 kg's)?
The value was 64%.

And the “C17H12O6, % Reduction” value ([3]; Sr. No. 1, 70 kg's)?
Its value is 100%.

And the “C17H12O6, % Reduction” value ([3]; Sr. No. 2, 70 kg's)?
Its value is 85%.

And the “C17H12O6, % Reduction” value ([3]; Sr. No. 3, 70 kg's)?
Its value is 100%.

What about the “No weevil infestation in system treated samples up to” value (weevils and weevil eggs) of the same molecule?
Its value is “up to 6 months”.

And the “Treatment effective in delaying infestation up to” value (weevils and weevil eggs)?
The value was “up to 6 months”.

What about the “Remarks on Weevils/Insects, Treated” value (weevils and weevil eggs; Post 1.5 Months) of the same molecule?
Its value is “No weevils/insects”.

And the “Remarks on Weevils/Insects, Treated” value (weevils and weevil eggs; Post 2 Months)?
Its value is “No weevils/insects”.

What about the “Remarks on Weevils/Insects, Treated” value (weevils and weevil eggs; Post 3 Months) of the same molecule?
The value was “No weevils/insects”.

What about the “Remarks on Weevils/Insects, Treated” value (weevils and weevil eggs; Post 5 Months) of the same molecule?
Its value is “No weevils/insects”.

What about the “Remarks on Weevils/Insects, Treated” value (weevils and weevil eggs; Post 6 Months) of the same molecule?
Its value is “No weevils/insects”.

What about the “Remarks on Weevils/Insects, Treated: insect observed alive, buff/cream, 5 mm long” value (weevils and weevil eggs; Post 7 Months) of the same molecule?
The value was 1 insect observed -.

What about the “Visual observation: Pin holes on grain” value (weevils and weevil eggs; 1.5 Months) of the same molecule?
The value was “✓”.

And the “Visual observation: Powder at the bottom of bag” value (shortened to “Visual observation: Powder”) (weevils and weevil eggs; 1.5 Months)?
Its value is “✓”.

And the Weevils/Insects (weevils and weevil eggs; 1.5 Months)?
The Weevils/Insects was “✓”.

What about the “Visual observation: Pin holes on grain” value (weevils and weevil eggs; 2 Months) of the same molecule?
Its value is “✓”.

What about the “Visual observation: Powder” value (weevils and weevil eggs; 2 Months) of the same molecule?
The value was “✓”.

And the Weevils/Insects (weevils and weevil eggs; 2 Months)?
The Weevils/Insects was “✓”.

And the “Visual observation: Pin holes on grain” value (weevils and weevil eggs; 3 Months)?
Its value is “✓”.

What about the “Visual observation: Powder” value (weevils and weevil eggs; 3 Months) of the same molecule?
The value was “✓”.

What about the Weevils/Insects (weevils and weevil eggs; 3 Months) of the same molecule?
Its Weevils/Insects is “✓”.

And the “Visual observation: Pin holes on grain” value (weevils and weevil eggs; 5 Months)?
The value was “✓”.

What about the “Visual observation: Powder” value (weevils and weevil eggs; 5 Months) of the same molecule?
The value was “✓”.

What about the Weevils/Insects (weevils and weevil eggs; 5 Months) of the same molecule?
Its Weevils/Insects is “✓”.

What about the “Visual observation: Pin holes on grain” value (weevils and weevil eggs; 6 Months) of the same molecule?
Its value is “✓”.

What about the “Visual observation: Powder” value (weevils and weevil eggs; 6 Months) of the same molecule?
Its value is “✓”.

What about the Weevils/Insects (weevils and weevil eggs; 6 Months) of the same molecule?
Its Weevils/Insects is “✓”.

And the “Visual observation: Pin holes on grain” value (weevils and weevil eggs; 7 Months)?
Its value is “✓”.

And the “Visual observation: Powder” value (weevils and weevil eggs; 7 Months)?
Its value is “✓”.

And the Weevils/Insects (weevils and weevil eggs; 7 Months)?
Its Weevils/Insects is “x”.

And the “Number of weevils in treated sample, times less than that in control sample” value (weevils and weevil eggs; at month 7)?
The value was 3 times.

And the “Imidacloprid, % Reduction” value [4]?
The value was 40%.
